# Experimental data reported in ChEMBL document CHEMBL1134243, “2-[N1-2-pyrimidyl-aminobenzenesulfonamido] ethyl 4-bis(2-chloroethyl) aminophenyl butyrate: a potent antitumor agent” (Bioorg Med Chem Lett, 2001).
# How the values were obtained:
# [1] = Therapeutic Index was determined; details: read-out: TI
# [2] = Lethal dose at a concentration of 0.163 mmol/kg in mice administered intraperitoneally; assay type: toxicity, organism-based; details: mouse, in vivo, ip
# [3] = In vivo antitumor activity against murine S-180 sarcoma at a dose of 5 mg/kg administered intraperitoneally 7qd in mice expressed as percent inhibition; assay type: functional; details: Mus musculus, S-180, ip, route intraperitoneal
# [4] = In vivo antitumor activity against murine S-180 sarcoma at a dose of 6.8 mg/kg administered intraperitoneally 7qd in mice expressed as percent inhibition; assay type: functional; details: Mus musculus, S-180, ip, route intraperitoneal
# Mus musculus [5] = assay: Antitumor activity against murine S-180 sarcoma at dose of LD50 X 1/10 equal toxicity; assay type: functional
# Mus musculus [6] = assay: Antitumor activity against murine S-180 sarcoma at dose of LD50 X 1/20 equal toxicity; assay type: functional
# Mus musculus [7] = assay: Antitumor activity against murine S-180 sarcoma at dose of LD50 X 1/40 equal toxicity; assay type: functional
# [8] = In vivo antitumor activity against murine S-180 sarcoma at a dose of 1.3 mg/kg administered intraperitoneally 7qd in Male TA1 mice; 10 survived out of 10 mice; assay type: functional, Mus musculus; details: route intraperitoneal
# [9] = In vivo antitumor activity against murine S-180 sarcoma at a dose of 2.5 mg/kg administered intraperitoneally 7qd in Male TA1 mice; 10 survived out of 10 mice; assay type: functional, Mus musculus; details: route intraperitoneal
# [10] = In vivo antitumor activity against murine S-180 sarcoma at a dose of 5 mg/kg administered intraperitoneally 7qd in Male TA1 mice; 9 survived out of 10 mice; assay type: functional, Mus musculus; details: route intraperitoneal
# [11] = In vivo antitumor activity against murine S-180 sarcoma at a dose of 6.8 mg/kg administered intraperitoneally 7qd in Male TA1 mice; 9 survived out of 10 mice; assay type: functional, Mus musculus; details: route intraperitoneal
# [12] = In vivo antitumor activity against murine S-180 sarcoma at a dose of 1.3 mg/kg administered intraperitoneally 7qd in mice expressed effect on tumor weight; assay type: functional, Mus musculus; details: route intraperitoneal
# [13] = In vivo antitumor activity against murine S-180 sarcoma at a dose of 2.5 mg/kg administered intraperitoneally 7qd in mice expressed effect on tumor weight; assay type: functional, Mus musculus; details: route intraperitoneal
# [14] = In vivo antitumor activity against murine S-180 sarcoma at a dose of 5 mg/kg administered intraperitoneally 7qd in mice expressed effect on tumor weight; assay type: functional, Mus musculus; details: route intraperitoneal
# [15] = In vivo antitumor activity against murine S-180 sarcoma at a dose of 6.8 mg/kg administered intraperitoneally 7qd in mice expressed effect on tumor weight; assay type: functional, Mus musculus; details: route intraperitoneal
# [16] = Antitumor activity against murine S-180 sarcoma at dose of 0.016(mmol/kg); assay type: functional, Mus musculus
# [17] = Antitumor activity against murine S-180 sarcoma at dose of 0.022(mmol/kg); assay type: functional, Mus musculus
# [18] = In vivo antitumor activity against murine S-180 sarcoma at a dose of 1.3 mg/kg administered intraperitoneally 7qd in mice; Body wt initial/Final = 19.9/23.4; assay type: functional, Mus musculus; details: route intraperitoneal
# [19] = In vivo antitumor activity against murine S-180 sarcoma at a dose of 2.5 mg/kg administered intraperitoneally 7qd in mice; Body wt initial/Final = 20.0/21.3; assay type: functional, Mus musculus; details: route intraperitoneal
# [20] = Antitumor activity against murine S-180 sarcoma at dose of 0.004(mmol/kg); assay type: functional, Mus musculus
# [21] = Antitumor activity against murine S-180 sarcoma at dose of 0.008(mmol/kg); assay type: functional, Mus musculus
# [22] = In vivo antitumor activity against murine S-180 sarcoma at a dose of 5 mg/kg administered intraperitoneally 7qd in mice; Body wt initial/Final = 19.7/19.1; assay type: functional, Mus musculus; details: route intraperitoneal
# [23] = In vivo antitumor activity against murine S-180 sarcoma at a dose of 6.8 mg/kg administered intraperitoneally 7qd in mice; Body wt initial/Final = 19.8/18.4; assay type: functional, Mus musculus; details: route intraperitoneal
# [24] = In vivo antitumor activity against murine S-180 sarcoma at a dose of 1.3 mg/kg administered intraperitoneally 7qd in mice expressed as percent inhibition; assay type: functional; details: Mus musculus, S-180, ip, route intraperitoneal
# [25] = In vivo antitumor activity against murine S-180 sarcoma at a dose of 2.5 mg/kg administered intraperitoneally 7qd in mice expressed as percent inhibition; assay type: functional; details: Mus musculus, S-180, ip, route intraperitoneal
# [26] = Lethal dose at a concentration of 0.225 mmol/kg in mice administered intraperitoneally; assay type: toxicity, organism-based; details: mouse, in vivo, ip
# [27] = In vivo antitumor activity against murine S-180 sarcoma at a dose of 9.6 mg/kg administered intraperitoneally 7qd in mice expressed effect on tumor weight; assay type: functional, Mus musculus; details: route intraperitoneal
# [28] = In vivo antitumor activity against murine S-180 sarcoma at a dose of 4.8 mg/kg administered intraperitoneally 7qd in mice expressed as percent inhibition; assay type: functional; details: Mus musculus, S-180, ip, route intraperitoneal
# [29] = In vivo antitumor activity against murine S-180 sarcoma at a dose of 6.5 mg/kg administered intraperitoneally 7qd in mice expressed as percent inhibition; assay type: functional; details: Mus musculus, S-180, ip, route intraperitoneal
# [30] = In vivo antitumor activity against murine S-180 sarcoma at a dose of 9.6 mg/kg administered intraperitoneally 7qd in mice expressed as percent inhibition; assay type: functional; details: Mus musculus, S-180, ip, route intraperitoneal
# [31] = In vivo antitumor activity against murine S-180 sarcoma at a dose of 13 mg/kg administered intraperitoneally 7qd in Male TA1 mice; 9 survived out of 10 mice; assay type: functional, Mus musculus; details: route intraperitoneal
# [32] = In vivo antitumor activity against murine S-180 sarcoma at a dose of 3.3 mg/kg administered intraperitoneally 7qd in Male TA1 mice; 10 survived out of 10 mice; assay type: functional, Mus musculus; details: route intraperitoneal
# [33] = In vivo antitumor activity against murine S-180 sarcoma at a dose of 6.5 mg/kg administered intraperitoneally 7qd in Male TA1 mice; 10 survived out of 10 mice; assay type: functional, Mus musculus; details: route intraperitoneal
# [34] = In vivo antitumor activity against murine S-180 sarcoma at a dose of 9.6 mg/kg administered intraperitoneally 7qd in Male TA1 mice; 9 survived out of 10 mice; assay type: functional, Mus musculus; details: route intraperitoneal
# [35] = In vivo antitumor activity against murine S-180 sarcoma at a dose of 13 mg/kg administered intraperitoneally 7qd in mice expressed effect on tumor weight; assay type: functional, Mus musculus; details: route intraperitoneal
# [36] = In vivo antitumor activity against murine S-180 sarcoma at a dose of 3.3 mg/kg administered intraperitoneally 7qd in mice expressed effect on tumor weight; assay type: functional, Mus musculus; details: route intraperitoneal
# [37] = In vivo antitumor activity against murine S-180 sarcoma at a dose of 4.8 mg/kg administered intraperitoneally 7qd in mice expressed effect on tumor weight; assay type: functional, Mus musculus; details: route intraperitoneal
# [38] = In vivo antitumor activity against murine S-180 sarcoma at a dose of 6.5 mg/kg administered intraperitoneally 7qd in mice expressed effect on tumor weight; assay type: functional, Mus musculus; details: route intraperitoneal
# [39] = In vivo antitumor activity against murine S-180 sarcoma at a dose of 13 mg/kg administered intraperitoneally 7qd in mice; Body wt initial/Final = 19.8/18.0; assay type: functional, Mus musculus; details: route intraperitoneal
# [40] = In vivo antitumor activity against murine S-180 sarcoma at a dose of 2.5 mg/kg administered intraperitoneally 7qd in mice; Body wt initial/Final = 19.9/23.4; assay type: functional, Mus musculus; details: route intraperitoneal
# [41] = In vivo antitumor activity against murine S-180 sarcoma at a dose of 3.3 mg/kg administered intraperitoneally 7qd in mice; Body wt initial/Final = 19.6/22.5; assay type: functional, Mus musculus; details: route intraperitoneal
# [42] = In vivo antitumor activity against murine S-180 sarcoma at a dose of 6.5 mg/kg administered intraperitoneally 7qd in mice; Body wt initial/Final = 19.8/19.5; assay type: functional, Mus musculus; details: route intraperitoneal
# [43] = In vivo antitumor activity against murine S-180 sarcoma at a dose of 9.6 mg/kg administered intraperitoneally 7qd in mice; Body wt initial/Final = 19.6/18.3; assay type: functional, Mus musculus; details: route intraperitoneal
# [44] = In vivo antitumor activity against murine S-180 sarcoma at a dose of 13 mg/kg administered intraperitoneally 7qd in mice expressed as percent inhibition; assay type: functional; details: Mus musculus, S-180, ip, route intraperitoneal
# [45] = In vivo antitumor activity against murine S-180 sarcoma at a dose of 3.3 mg/kg administered intraperitoneally 7qd in mice expressed as percent inhibition; assay type: functional; details: Mus musculus, S-180, ip, route intraperitoneal
# [46] = In vivo antitumor activity against murine S-180 sarcoma at a dose of 4.8 mg/kg administered intraperitoneally 7qd in mice; Body wt initial/Final = 19.8/20.7; assay type: functional, Mus musculus; details: route intraperitoneal
# [47] = In vivo antitumor activity against murine S-180 sarcoma at a dose of 4.8 mg/kg administered intraperitoneally 7qd in Male TA1 mice; 10 survived out of 10 mice; assay type: functional, Mus musculus; details: route intraperitoneal
structure (smiles),measurement,setting,value
O=C(O)CCCc1ccc(N(CCCl)CCCl)cc1 [CHLORAMBUCIL],selectivity ratio,[1],22.8
same,LD50,[2],49.6 mg/kg
same,inhibition in vivo at 5 mg/kg,[3],73.3%
same,inhibition in vivo at 6.8 mg/kg,[4],77.4%
same,LD50 x 1/10,Mus musculus [5],73.3
same,LD50 x 1/20,Mus musculus [6],52.9
same,LD50 x 1/40,Mus musculus [7],37.1
same,Mice In. / Fi.,[8],10
same,Mice In. / Fi.,[9],10
same,Mice In. / Fi.,[10],9
same,Mice In. / Fi.,[11],9
same,Tumor weight,[12],1.39
same,Tumor weight,[13],1.04
same,Tumor weight,[14],0.59
same,Tumor weight,[15],0.5
same,Antitumour activity,[16],73.3
same,Antitumour activity,[17],77.4
same,Body weight In. / Fi.,[18],19.9 g
same,Body weight In. / Fi.,[19],20 g
same,Antitumour activity,[20],37.1
same,Antitumour activity,[21],52.9
same,Body weight In. / Fi.,[22],19.7 g
same,Body weight In. / Fi.,[23],19.8 g
same,inhibition in vivo at 1.3 mg/kg,[24],37.1%
same,inhibition in vivo at 2.5 mg/kg,[25],52.9%
Nc1ccc(S(=O)(=O)N(CCOC(=O)CCCc2ccc(N(CCCl)CCCl)cc2)c2ncccn2)cc1,selectivity ratio,[1],47.5
same,LD50,[26],131 mg/kg
same,Tumor weight,[27],0.51
same,inhibition in vivo at 4.8 mg/kg,[28],63.4%
same,inhibition in vivo at 6.5 mg/kg,[29],74.2%
same,inhibition in vivo at 9.6 mg/kg,[30],76.9%
same,LD50 x 1/10,Mus musculus [5],81.5
same,LD50 x 1/20,Mus musculus [6],74.2
same,LD50 x 1/40,Mus musculus [7],50.7
same,Mice In. / Fi.,[31],9
same,Mice In. / Fi.,[9],10
same,Mice In. / Fi.,[32],10
same,Mice In. / Fi.,[33],10
same,Mice In. / Fi.,[34],9
same,Tumor weight,[35],0.41
same,Tumor weight,[13],1.15
same,Tumor weight,[36],1.09
same,Tumor weight,[37],0.81
same,Tumor weight,[38],0.57
same,Antitumour activity,[16],76.9
same,Antitumour activity,[17],81.5
same,Body weight In. / Fi.,[39],19.8 g
same,Body weight In. / Fi.,[40],19.9 g
same,Body weight In. / Fi.,[41],19.6 g
same,Antitumour activity,[20],47.9
same,Antitumour activity,[21],63.4
same,Body weight In. / Fi.,[42],19.8 g
same,Body weight In. / Fi.,[43],19.6 g
same,inhibition in vivo at 13 mg/kg,[44],81.5%
same,inhibition in vivo at 2.5 mg/kg,[25],48%
same,inhibition in vivo at 3.3 mg/kg,[45],50.7%
same,Body weight In. / Fi.,[46],19.8 g
same,Mice In. / Fi.,[47],10
